Experimental data: BindingDB's records for doi:10.7270/Q21N7ZQ4 (Johns Hopkins Ion Channel Center, 2012)

Target: T1, High affinity choline transporter 1 (Homo sapiens, UniProt Q9GZV3)
T1 sequence (Q9GZV3 whole entry): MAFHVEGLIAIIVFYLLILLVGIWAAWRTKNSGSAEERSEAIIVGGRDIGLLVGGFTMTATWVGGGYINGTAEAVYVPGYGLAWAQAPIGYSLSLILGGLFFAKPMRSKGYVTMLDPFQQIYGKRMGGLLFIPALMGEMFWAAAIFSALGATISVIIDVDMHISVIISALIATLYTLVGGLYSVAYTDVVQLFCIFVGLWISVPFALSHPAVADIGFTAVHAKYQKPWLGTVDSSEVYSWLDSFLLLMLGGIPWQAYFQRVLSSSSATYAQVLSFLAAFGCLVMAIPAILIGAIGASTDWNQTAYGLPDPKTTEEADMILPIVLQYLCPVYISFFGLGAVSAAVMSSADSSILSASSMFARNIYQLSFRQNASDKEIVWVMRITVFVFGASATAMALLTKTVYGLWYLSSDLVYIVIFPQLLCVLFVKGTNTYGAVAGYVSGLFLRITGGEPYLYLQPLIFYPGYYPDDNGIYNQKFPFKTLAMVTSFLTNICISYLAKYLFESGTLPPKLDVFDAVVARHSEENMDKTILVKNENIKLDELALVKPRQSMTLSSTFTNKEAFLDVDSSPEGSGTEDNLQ
Experiment: human choline transporter potentiators, potency – cell-based, 10-point CRC, membrane potential dye, dose response (AID 602376)

Row | SMILES | EC50 [µM]
1 | COc1cc(C2c3ccc(N)cc3OC(=N)C2C#N)cc(OC)c1OC (configuration not stated) [2,7-bis(azanyl)-4-(3,4,5-trimethoxyphenyl)-4H-chromene-3-carbonitrile] | 13.5
2 | CCOC(=O)c1ccc(-[n+]2c(-c3ccccc3)cc(-c3ccccc3)cc2-c2ccccc2)cc1 [MLS001242871] | 14.1
